BigSolDB 2.1

Cc1nc2n(c(=O)c1CCN1CCC(c3noc4cc(F)ccc34)CC1)CCCC2
solubility (mole fraction)
Conditions | 278.15 K | 283.15 K | 288.15 K | 293.15 K | 298.15 K | 303.15 K | 308.15 K | 313.15 K | 318.15 K | 323.15 K
in acetone | 0.00085 | 0.00095 | 0.00127 | 0.00143 | 0.00175 | 0.00219 | 0.00284 | 0.00336 | 0.00417 | 0.00507
in cumene | 0.00122 | 0.00147 | 0.00207 | 0.00219 | 0.0026 | 0.00309 | 0.00376 | 0.00481 | 0.00552 | 0.0066
in ethanol | 0.00096 | 0.00108 | 0.00131 | 0.00153 | 0.00201 | 0.00248 | 0.0033 | 0.00415 | 0.0051 | 0.00677
in ethyl acetate | 0.00116 | 0.00128 | 0.00167 | 0.00185 | 0.00216 | 0.00263 | 0.00331 | 0.00397 | 0.00485 | 0.0058
in isopropanol | 0.00036 | 0.00046 | 0.0006 | 0.0007 | 0.00103 | 0.00136 | 0.00203 | 0.00253 | 0.0032 | 0.00447
in methanol | 0.00202 | 0.0023 | 0.00272 | 0.00329 | 0.00396 | 0.00487 | 0.00615 | 0.0077 | 0.0099 | 0.0128
in n-butanol | 0.00152 | 0.00173 | 0.0022 | 0.00263 | 0.00347 | 0.00443 | 0.00593 | 0.00753 | 0.00963 | 0.0124
in n-propanol | 0.00139 | 0.00155 | 0.00197 | 0.00238 | 0.00305 | 0.00381 | 0.00517 | 0.00651 | 0.00839 | 0.0109
in toluene | 0.0038 | 0.00418 | 0.00521 | 0.00559 | 0.00667 | 0.008 | 0.00998 | 0.0117 | 0.014 | 0.0167
